Measured values from ChEMBL document CHEMBL1212934, “Isolation of pandamarilactonine-H from the roots of Pandanus amaryllifolius and synthesis of epi-pandamarilactonine-H” (J Nat Prod, 2010).

What was measured:
Type in all cases: functional, cell-based
HCT-116 = test: Cytotoxicity against human HCT116 cells
HT-29 = test: Cytotoxicity against human HT-29 cells
A549 = test: Cytotoxicity against human A549 cells

Measured: IC50

COC(=O)C[C@@H]1CCCN1CCC/C=C1\C=C(C)C(=O)O1
> 5 µg/mL: all assays above

COC(=O)C[C@H]1CCCN1CCC/C=C1/C=C(C)C(=O)O1
> 5 µg/mL: all assays above

COC(=O)C[C@H]1CCCN1CCC/C=C1\C=C(C)C(=O)O1
> 5 µg/mL: all assays above

CC1=C[C@H]([C@H]2CCCN2CCCC[C@@H]2C[C@@H](C)C(=O)O2)OC1=O
> 5 µg/mL: all assays above
